Measurements as given in PMC7571068, “Antiproliferative and Pro-Apoptotic Effect of Uvaol in Human Hepatocarcinoma HepG2 Cells by Affecting G0/G1 Cell Cycle Arrest, ROS Production and AKT/PI3K Signaling Pathway” (Molecules, 2020).

Tests used:
[1] = system: MCF-7 line; parameters: method as in PMID 21142067; conditions: MCF-7, 44.27 μg/mL, same phase = G0/G1; cited from earlier work
[2] = system: WRL68 cells; assay: Muse Annexin V & Dead Cell apoptosis assay; assay type: cell-based, human; conditions: WRL68, uvaol IC50, 24 h
Procedure: (§1) A total of 1.5 × 10^5 cells were seeded per well in 24-well plates for each cell line (quadruplicates for three different populations of each cell line). […] Negative control populations were incubated only with the appropriate culture medium. The samples were analyzed in the Muse^TM Cell Analyzer (Merck-Millipore®, Burlington, MA, USA). Phosphatidylserine (PS) is a phospholipid that is usually found in the inner half of the cytoplasmic membrane, but is outsourced when loss of integrity occurs in the apoptosis process. The method is based on the recognition and binding to the PS exposed by annexin V protein, labeled with a fluorescent substance to detect the interaction and quantify it. We used the Muse^TM Annexin V & Dead Cell kit purchased from Millipore (Billerica, MA, USA), which provides the percentage of viable cells, apoptotic and affected by necrosis.

[3] = system: HepG2 cells; assay: Muse Annexin V & Dead Cell apoptosis assay; assay type: cell-based, human; conditions: HepG2, uvaol IC50, 24 h
Procedure: as §1

[4] = system: WRL68 cells; assay: Wound healing (scratch) assay; assay type: cell-based, human; conditions: WRL68, IC50 concentration, 0-42 h
Procedure: (§2) The wound healing or scratch assay was used to assess the migration capacity of the WRL68 and HepG2 cell lines. With this objective, 3 × 10^5 cells were seeded per well in a 6-well plate in triplicate for each cell line. When the populations reached a confluence of 80–90%, a sterile pipette tip was used to disrupt in a straight line (make a wound) the layer of cells attached to the culture surface. Subsequently, it was washed with PBS to prevent the cells that had been lifted from being able to rejoin. […] Quantification of wound healing was performed by using the MRI-Wound Healing Tool for ImageJ software (ImageJ 1.53a version).

[5] = system: HepG2 cells; assay: Wound healing (scratch) assay; assay type: cell-based, human; conditions: HepG2, IC50 concentration, 0-42 h
Procedure: as §2

[6] = system: p53, c-Myc, Bcl-2, SOD, HSP-60 and Bax proteins in HepG2 cells; assay: Western blot of protein expression; assay type: cell-based, human; conditions: HepG2, IC50, 24 h, normalized to actin
Procedure: (§3) Triplicates of three different populations of each cell line, WRL68 and HepG2, were seeded in 6-well plates with a density of 2.5 × 10^5 cells per well. […] For protein extraction, each sample was resuspended in 20 μL of RIPA buffer (150 mM NaCl, 1% Igepal, 0.5% deoxycholic acid, 0.1% SDS, 50 mM Tris HCl pH 7.5, 0.2 M PMSF, […] and Thermo Scientific® PierceTM inhibitor cocktail, Waltham, MA, USA), and held on ice for 15 min. They were centrifuged at 15,000× g for 10 min at 4 °C, the supernatant was collected and stored at −80 °C for further analysis. The quantification of the protein concentration was carried out through the Bradford method. The methodology used for Western blot analysis is described by Mokhtari et al.. Brie fly, the initial separation of the extracts was performed by a 12% polyacrylamide gel electrophoresis under denaturing conditions (SDS-PAGE). A standardized load of 30 μg of protein per well was used after denaturing the samples at 95 °C for 5 min and adding the loading buffer (0.25 mM Tris-HCl pH 6.8, 10% SDS, 1 M DTT and glycerol). The proteins were transferred, by the semi-dry transfer method, (60 mA per gel, 1 h) using the TransBlot Turbo system (BioRad®, Berkeley, CA, USA), to a PVDF membrane. The membranes were blocked with blocking buffer (TBS, 0.1% Tween-20 and 3% skimmed milk) for 1 h at room temperature, incubating with the specific primary antibodies against the proteins studied at 4 °C overnight. The primary antibodies (from Santa Cruz Biotechnology®, Dallas, TX, USA) were diluted in blocking buffer. The membranes were washed with TBS-T (TBS, 0.1% Tween-20) for 5 min three times under stirring, and incubated with the corresponding secondary antibody (from Sigma®, St. Louis, MO, USA) (Table 1) for 1 h at room temperature, repeating the previous washing process later. These secondary antibodies have the enzyme horseradish peroxidase (HRP) coupled, which allows chemiluminescence to be detected in the presence of the protein band due to its ability to oxidize the luminol solution (ECL-plus Western-blot detection system, GE Healthcare, Chicago, IL, USA). The reaction produced was captured inside a ChemiDoc Imaging System (Bio-Rad®, Berkely, CA, USA). The program used to analyze the images obtained was Image Lab Software (Bio-Rad®, for PC 6.1 version). The expression of each protein was normalized referring to actin levels and were represented based on the results obtained for the control situation (WRL68 line without treatment) as percentage of expression (%). The expression obtained in each protein was analyzed through the mentioned program in triplicate.

[7] = system: p53, c-Myc, Bcl-2, SOD, HSP-60 and Bax proteins in WRL68 cells; assay: Western blot of protein expression; assay type: cell-based, human; conditions: WRL68, IC50, 24 h, normalized to actin
Procedure: as §3

[8] = system: WRL68 cells; assay: Morphological changes, optical microscopy; assay type: cell-based, human; conditions: WRL68, IC50, 24 h
Procedure: (§4) Optical microscopy (Olympus® model CX22LED, Tokyo, Japan) images of the cultures were obtained in the mentioned conditions at 10 and 40 magnifications for the cell line each after 24 h of the treatment’s application.

[9] = system: HepG2 cells; assay: Morphological changes, optical microscopy; assay type: cell-based, human; conditions: HepG2, IC50, 24 h
Procedure: as §4

[10] = system: WRL68 cells; assay: Muse cell cycle assay (flow cytometry); assay type: cell-based, human; conditions: WRL68, IC50, 24 h
Procedure: (§5) A total of 1.5 × 10^5 cells were seeded per well in 24-well plates for each cell line (quadruplicates for three different populations of each cell line). […] Negative control populations were incubated only with the appropriate culture medium. The samples were analyzed in the Muse^TM Cell Analyzer (Merck-Millipore®, Burlington, MA, USA). The method is based on the analysis of the cell cycle through the discrimination of three populations: cells in phase G0/G1, S or G2/M. For this, the Muse^TM Cell Cycle Kit purchased from Millipore (Billerica, MA, USA) was used following the specification of manufacturer.

[11] = system: HepG2 cells; assay: Muse cell cycle assay (flow cytometry); assay type: cell-based, human; conditions: HepG2, IC50, 24 h
Procedure: as §5

## C[C@H]1[C@H](C)CC[C@]2(CO)CC[C@]3(C)C(=CC[C@@H]4[C@@]5(C)CC[C@H](O)C(C)(C)[C@@H]5CC[C@]43C)[C@H]12 [uvaol, urs-12-ene-3,28-diol]
[1]
  cell cycle arrest: arrest in the same phase of the cycle
[2]
  change in number of apoptotic and necrotic cells vs control: equally significant increase
  change in number of viable cells vs control: significant decrease
[3]
  change in percentage of viable cells vs control: significant reduction
  change in proportion of apoptotic cells vs control: increasing the proportion of apoptotic cells
[4]
  wound closure (cell migration): wound healing was maintained during more hours than the control group
[5]
  wound closure (cell migration): the wound remains until the end of the trial
[6]
  Bax expression vs control: increased
  Bcl-2 expression vs control: decreased
  HSP-60 expression vs control: increased in both lines
  SOD expression vs control: remained unchanged
  c-Myc expression vs control: maintained
  p53 expression vs control: remained unchanged
[7]
  Bax expression vs control: did not produce changes
  Bcl-2 expression vs control: did not produce changes
  HSP-60 expression vs control: increased in both lines
  SOD expression vs control: increased
  c-Myc expression vs control: increase
  p53 expression vs control: increased
[8]
  cell morphology change: become rounded and have cytoplasmic projections
[9]
  cell morphology change: slightly more rounded, with very sharp projections and a loss of adhesion to the support
[10]
  change in percentage of cells in G0/G1 phase vs control: significant decrease
  change in percentage of cells in G2/M phase vs control: increase
  change in percentage of cells in S phase vs control: significant decrease
[11]
  change in percentage of cells in G0/G1 phase vs control: statistically significant increase
  change in percentage of cells in G2/M phase vs control: equally significant reduction
  change in percentage of cells in S phase vs control: No differences were found
